Test results: patent US9434994B2, “Methods for prediction of clinical outcome to epidermal growth factor receptor inhibitors by non-small cell lung cancer patients” (The Regents of the University of Colorado, a body corporate, priority 2004, dated 2016)
Read-outs that look alike come from different tables or passages of the source.

System: NSCLC patients
[1] = EGFR FISH+/EGFR mutation+ (17 patients)
[2] = FISH +, IHC +, EGFR Mut +, n 12
[3] = FISH +, IHC +, EGFR Mut −, n 20
[4] = FISH −, IHC +, EGFR Mut +, n 12
[5] = FISH −, IHC +, EGFR Mut −, n 39
[6] = FISH −, IHC −, EGFR Mut −, n 37
[7] = FISH+ or EGFR + (EGFR mutation), 46 pts
[8] = FISH+/EGFR+ (EGFR mutation), 17 pts
[9] = FISH−/EGFR− (EGFR mutation), 80 pts
[10] = triple positive: EGFR FISH, EGFR IHC, P-AKT
[11] = triple positive: EGFR FISH, IHC, mutation (12 patients)

Excerpt: In order to make a more substantial statistical analysis and power, the inventors have analyzed the combined data set, which includes altogether 204 patients with NSCLC.
The multivariable analysis is based on an initial univariable analysis including clinical- and biological markers by using backward stepwise regression methods. All univariately significant covariates were included in the stepwise selection.

## COc1cc2ncnc(Nc3ccc(F)c(Cl)c3)c2cc1OCCCN1CCOCC1 [gefitinib]
Current/Former smokers
  HR, survival, multivariable: 2.68
EGFR FISH+
  DC (disease control): 65%
  MS (95% CI): 18 (14-21) months
  OR (overall response): 33%
  TTP, median (95% CI): 9 (5-10) months
EGFR FISH+ or IHC+
  1-yr survival: 44% (33-55)
  DCR: 43%
  MS: 11 (7-15) mo
  RSP: 10%
  TTP: 3 (2-5) mo
[1]
  Disease Control Rate: 69%
  response rate: 69%
  time to progression: 16 months
EGFR FISH+/EGFR mutation+, not yet achieved
  Median Survival: exceeding 20 months
EGFR FISH+/IHC+
  DCR: 76%
  MS: 21 (15-21) mo
  RSP: 41%
  TTP: 9 (6-16) mo
EGFR FISH-
  DC (disease control): 30%
  MS (95% CI): 8 (6-11) months
  OR (overall response): 6%
  TTP, median (95% CI): 3 (2-3) months
EGFR FISH-/EGFR mutation-
  Disease Control Rate: 29%
  response rate: 3%
  time to progression: 3 month
EGFR FISH-/IHC-
  DCR: 17%
  MS: 6 (4-8) mo
  RSP: 2%
  TTP: 2 (2-3) mo
EGFR IHC+
  DC (disease control): 56%
  MS (95% CI): 14 (11-21) months
  OR (overall response): 22%
  TTP, median (95% CI): 5 (3-7) months
EGFR IHC-
  DC (disease control): 27%
  HR, survival, multivariable: 1.70
  MS (95% CI): 7 (5-10) months
  OR (overall response): 5%
  TTP, median (95% CI): 3 (2-3) months
EGFR Mutation+
  DC (disease control): 52%
  MS (95% CI): 13 (6-21)
  OR (overall response): 39%
  TTP, median (95% CI): 3 (2-11)
EGFR Mutation-
  DC (disease control): 37%
  MS (95% CI): 11 (7-13)
  OR (overall response): 7%
  TTP, median (95% CI): 3 (2-4)
EGFR mutation+ or IHC+
  1-yr survival: 50% (39-61)
  DCR: 47%
  MS: 12 (8-15) mo
  RSP: 12%
  TTP: 3 (2-5) mo
EGFR mutation+/IHC+
  1-yr survival: 63% (45-81)
  MS: 21 (10-21) mo
  RSP: 50%
  TTP: 10 (2-16) mo
EGFR mutation-/IHC-
  MS: 7 (5-12) mo
  RSP: 2%
  TTP: 2 (2-3) mo
[2]
  1-yr surv: 100%
  DCR: 78%
  OR (response rate): 78%
  TTP: 20 (11-20) months
[3]
  1-yr surv: 64% (42-86)
  OR (response rate): 22%
  OS (median survival): 15 (6-16) months
  TTP: 5 (3-12) months
FISH +, IHC +, P-AKT +, N 34
  1-yr surv: 84% (70-97)
  DCR: 80%
  OR (response rate): 43%
  TTP: 12 (6-19) months
FISH +, IHC +, P-AKT −, N 4
  1-yr surv: 75% (33-100)
  OR (response rate): 0%
  OS (median survival): 18 (5-18) months
  TTP: 9 (2-9) months
FISH +, IHC −, EGFR Mut +, n 5
  1-yr surv: 60% (17-100)
  DCR: 50%
  OR (response rate): 50%
  TTP: 3 (2-9) months
FISH +, IHC −, EGFR Mut −, n 8
  1-yr surv: 38% (7-66)
  DCR: 39%
  OR (response rate): 0%
  OS (median survival): 9 (1-9) months
  TTP: 2 (1-6) months
FISH +, IHC −, P-AKT +, N 15
  1-yr surv: 53% (28-79)
  DCR: 46%
  OR (response rate): 15%
  OS (median survival): 14 (3-19) months
  TTP: 3 (2-6) months
FISH +, IHC −, P-AKT −, N 2
  1-yr surv: 0% (0-69)
  DCR: 0%
  OR (response rate): 0%
  OS (median survival): 9 (NA) months
  TTP: 2 (NA) months
[4]
  1-yr surv: 42% (1470)
  DCR: 44%
  OR (response rate): 22%
  OS (median survival): 11 (3-11) months
  TTP: 4 (2-7) months
[5]
  1-yr surv: 49% (33-64)
  DCR: 41%
  OR (response rate): 3%
  OS (median survival): 11 (8-18) months
  TTP: 3 (2-5) months
FISH −, IHC +, P-AKT +, N 35
  1-yr surv: 43% (26-59)
  DCR: 47%
  OR (response rate): 13%
  OS (median survival): 11 (6-15) months
  TTP: 4 (2-6) months
FISH −, IHC +, P-AKT −, N 23
  1-yr surv: 47% (27-68)
  DCR: 50%
  OR (response rate): 6%
  OS (median survival): 9 (7-9) months
  TTP: 4 (2-7) months
FISH −, IHC −, EGFR Mut +, n 6
  1-yr surv: 0% (0-30)
  DCR: 0%
  OR (response rate): 0%
  OS (median survival): 3 (1-3) months
  TTP: 2 (1-2) months
[6]
  1-yr surv: 37% (21-52)
  DCR: 21%
  OR (response rate): 3%
  OS (median survival): 6 (4-12) months
  TTP: 2 (2-3) months
FISH −, IHC −, P-AKT +, N 32
  1-yr surv: 29% (13-44)
  DCR: 18%
  OR (response rate): 4%
  OS (median survival): 6 (4-10) months
  TTP: 2 (2-3) months
FISH −, IHC −, P-AKT −, N 17
  1-yr surv: 29% (8-51)
  DCR: 14%
  OR (response rate): 0%
  OS (median survival): 6 (4-12) months
  TTP: 2 (2-5) months
[7]
  1-yr (1-year survival): 45% (30-59)
  MS (mo) (median survival): 10 (5-14) mo
  RSP (response rate): 15%
  TTP (mo) (time to progression): 3 (2-5) mo
[8]
  1-yr (1-year survival): 67% (71-100)
  RSP (response rate): 69%
  TTP (mo) (time to progression): 16 (3-20) mo
[9]
  1-yr (1-year survival): 42% (31-53)
  DCR (disease control rate): 29%
  MS (mo) (median survival): 10 (6-13) mo
  RSP (response rate): 3%
  TTP (mo) (time to progression): 3 (2-3) mo
KRAS Mutation+
  1-yr OS: 49% (33%-66%)
  DC (disease control): 39%
  MS (95% CI): 11 (6-23)
  OR (overall response): 7%
  TTP, median (95% CI): 3 (2-4)
KRAS Mutation-
  1-yr OS: 50% (40%-60%)
  DC (disease control): 40%
  MS (95% CI): 12 (8-15)
  TTP, median (95% CI): 3 (2-4)
P-AKT+
  DC (disease control): 49%
  MS (95% CI): 13 (10-16)
  TTP, median (95% CI): 4 (3-5)
P-AKT+ or EGFR IHC+
  1-yr survival: 43% (32-54)
  DCR: 34%
  MS: 8 (6-14) mo
  RSP: 6%
  TTP: 3 (2-3) mo
P-AKT+/EGFR IHC+
  1-yr survival: 63% (51-74)
  MS: 16 (12-21) mo
  RSP: 30%
  TTP: 6 (4-10) mo
P-AKT-
  DC (disease control): 33%
  MS (95% CI): 8 (6-14)
  OR (overall response): 2%
  TTP, median (95% CI): 3 (2-5)
P-AKT-/EGFR IHC-
  DCR: 21%
  MS: 6 (5-9) mo
  TTP: 2 (2-4) mo
Both cohorts, total
  Disease Control Rate: 43%
  Median Survival: 11 (8-14)
  Median Time to Progression: 3 (3-4)
  One-YR Survival: 48% (41-55)
  Overall Response: 15%
Performance status 2
  HR, survival, multivariable: 3.64
[10]
  Disease Control Rate: 80%
  response rate: 43%
  time to progression: 12 months
Triple positive: EGFR FISH, EGFR IHC, P-AKT, not achieved yet
  Median Survival: exceeding 20 months
[11]
  1-year survival: 100%
  Disease Control Rate: 78%
  response rate: 78%
  time to progression: 20 months
Triple positive: EGFR FISH, IHC, mutation, not yet achieved
  Median Survival: exceeding 20 months
